Results published in patent US9234168B2, “Compositions containing amino acids, phosphate and manganese and their uses” (The Henry M. Jackson Foundation for the Advancement of …, priority 2010, dated 2016).

Columns and labels:
bacterial cell culture = experiment: Radioprotection of a bacterial cell culture; format: cell-based; conditions: agent alone
Excerpt: (§1) Applicants have shown that adenosine alone and Mn(II) alone are radioprotective […] for a mammalian cell line and for a bacterial cell culture.

mammalian cell line = experiment: Radioprotection of a mammalian cell line; format: cell-based; conditions: agent alone
Excerpt: as §1

E. coli = format: cell-based, Escherichia coli; conditions: 3 kGy; TGY supplemented with 1 μM Mn^2+, 13 mM phosphate, 3 mM uridine or 384 mM (3%) DMSO individually
Method: FIG. 3 depicts the survival curves of E. coli exposed to acute IR and grown in the presence of various supplements: TGY, standard peptide-rich growth medium; DMSO, dimethyl sulfoxide; UMnP, 3 mM uridine/1 μM Mn^2+/13 mM PiB (phosphate buffer).
Individually and in combination, the radioprotective properties of Mn^2+, phosphate, uridine and DMSO were determined using E. coli grown in TGY medium; TGY is a peptide-rich medium based on yeast extract, and contains approximately 200 nM Mn.

| Compound | radioprotection of a bacterial cell culture (bacterial cell culture) | radioprotection of a mammalian cell line (mammalian cell line) | increase of the resistance of E. coli (E. coli) |
| --- | --- | --- | --- |
| Nc1ncnc2c1ncn2[C@@H]1O[C@H](CO)[C@@H](O)[C@H]1O [adenosine] | radioprotective | radioprotective | – |
| [Mn+2] [Mn^2+] | radioprotective | radioprotective | did not increase the resistance |
| O=c1ccn([C@@H]2O[C@H](CO)[C@@H](O)[C@H]2O)c(=O)[nH]1 [uridine] | – | – | 50 times |
| C[S+](C)[O-] [DMSO, dimethyl sulfoxide] | – | – | 50 times |
| phosphate | – | – | 800 times |
